Experimental findings from ChEMBL document CHEMBL1201862, “PubChem BioAssay data set” (2004) are described below.

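Each compound was tested at five concentrations against cells in 96-well plates for 48 hours. GI50: concentration for 50% inhibition of growth.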 Calls of active or inactive are those of the source. Cut-off read from the data, not from the text of the source: active = GI50 up to about 1.1 µM and inactive = higher.

Among the test systems are HOP-92; SK-OV-3; SK-MEL-5; PC-3; HOP-62; HCT-15; COLO 205; T47D; HCT-116; NCI-H226; EKVX; NCI-H23; SK-MEL-28; K562; MDA-MB-435; UACC-257; Hs-578T; SNB-75; HL-60.
Assay in all cases: NCI tumour cell line growth inhibition, 48 h

As to `COC(=O)c1ccc2cc(O)ccc2c1`, the GI50 with HOP-92 was > 100 µM (inactive); in the assay on SK-OV-3 it was > 100 µM (inactive); in the assay on SK-MEL-5, 56.4 µM (inactive); with PC-3, > 100 µM (inactive); with HOP-62, > 100 µM (inactive); with HCT-15 it was above 100 µM. The GI50 in the assay with COLO 205 is > 100 µM (inactive); with T47D, 56.4 µM (inactive); with HCT-116, 68.7 µM (inactive); with NCI-H226, 60.1 µM (inactive); in the assay with EKVX it was 55.8 µM (inactive); in the assay on NCI-H23, 72.3 µM (inactive). Further, the GI50 was > 100 µM (inactive) with SK-MEL-28, 41.5 µM (inactive) in the assay on K562, 96.6 µM (inactive) with MDA-MB-435 and > 100 µM (inactive) with UACC-257.
On to `Nc1nc(N)c2ncn(-c3ccc(Br)cc3)c2n1`, for which the GI50 in the assay on Hs-578T was 4.12 µM (inactive); with SK-OV-3, 15 µM (inactive); in the assay on SK-MEL-5 it was 32.5 µM (inactive); with PC-3 it was 23 µM (inactive); with HOP-62 it was 23.6 µM (inactive); in the assay on HCT-15, 19.9 µM. Also, the GI50 with COLO 205 is > 50.5 µM (inactive); in the assay on T47D it was 29.4 µM (inactive); with HCT-116, 25.5 µM (inactive); in the assay on NCI-H226 it was 40.6 µM (inactive); in the assay with EKVX it was 5.45 µM (inactive); with NCI-H23 it was 40.6 µM (inactive). The GI50 in the assay on SK-MEL-28 is > 43.3 µM (inactive); in the assay with SNB-75, 6.97 µM (inactive); in the assay with K562 it was 11 µM (inactive); with MDA-MB-435 it was 39.2 µM (inactive); in the assay on UACC-257 it was > 100 µM (inactive).
Consider `Cc1nc2ccc(Cl)cc2c2c1CCN2c1ccc(F)cc1`, for which the GI50 is 26.3 µM (inactive) with Hs-578T; 17.1 µM (inactive) in the assay on HL-60; > 100 µM (inactive) in the assay on SK-OV-3; 7.87 µM (inactive) with SK-MEL-5; 11 µM (inactive) in the assay on PC-3; 18.9 µM (inactive) with HOP-62. Also, the GI50 in the assay with HCT-15 was 36 µM; with COLO 205 it was 9.95 µM (inactive); with T47D, 36.1 µM (inactive); in the assay with HCT-116, 5.75 µM (inactive); in the assay on NCI-H226 it was 16.2 µM (inactive); with EKVX it was 45.2 µM (inactive). Also, the GI50 in the assay on NCI-H23 is 20.2 µM (inactive); in the assay on SK-MEL-28 it was 20 µM (inactive); with SNB-75, 0.0266 µM (active); in the assay on K562, 5.35 µM (inactive); in the assay on MDA-MB-435, 7.05 µM (inactive); in the assay with UACC-257, 14.3 µM (inactive).
As for `CC/C(=C\c1ccc(OC)cc1)c1ccc(OC)cc1`, the GI50 with Hs-578T was > 100 µM (inactive); in the assay with HOP-92 it was 69.7 µM (inactive); in the assay with SK-OV-3 it was > 100 µM (inactive); with SK-MEL-5 it was 30.1 µM (inactive); in the assay on PC-3, > 100 µM (inactive); in the assay with HOP-62 it was > 100 µM (inactive). Besides, the GI50 was 74 µM with HCT-15; > 100 µM (inactive) in the assay with COLO 205; > 100 µM (inactive) with HCT-116; > 100 µM (inactive) in the assay with NCI-H226; > 100 µM (inactive) in the assay on EKVX; 86.3 µM (inactive) in the assay on NCI-H23. The GI50 with SNB-75 is > 100 µM (inactive); in the assay on K562, > 100 µM (inactive); with MDA-MB-435, 45.7 µM (inactive); in the assay with UACC-257, 38.5 µM (inactive).
Take `O=C1CSC2(CC(/C=C/C=C/c3ccccc3)=NN2c2cccc(S(=O)(=O)O)c2)N1c1nc2ccccc2s1` (stereo not given): the GI50 in the assay with HOP-92 was 34.8 µM (inactive); in the assay with HL-60, 4.24 µM (inactive); in the assay on SK-MEL-5 it was 35.2 µM (inactive); with PC-3, 37.3 µM (inactive); in the assay with HCT-15, 67.9 µM; in the assay with COLO 205 it was 50.8 µM (inactive). In addition, the GI50 in the assay on T47D is 23.4 µM (inactive); in the assay with HCT-116 it was 46.5 µM (inactive); with NCI-H226, 24.8 µM (inactive); in the assay with EKVX, 49 µM (inactive); with NCI-H23, 43.8 µM (inactive); in the assay with SK-MEL-28, > 100 µM (inactive). Besides, the GI50 was > 100 µM (inactive) with SNB-75, 29 µM (inactive) in the assay with K562, 21.6 µM (inactive) in the assay with MDA-MB-435 and 40.6 µM (inactive) with UACC-257.
Take `CNC(=S)/C(C#N)=C(\N)N1CCCC1`: the GI50 in the assay with Hs-578T, in the assay on HL-60, in the assay on SK-OV-3, with SK-MEL-5, in the assay with PC-3 and in the assay on HOP-62 was > 100 µM (inactive) in each case. Further, the GI50 with HCT-15 is above 100 µM; with COLO 205 it was > 100 µM (inactive); with T47D it was 57.5 µM (inactive); with HCT-116, > 100 µM (inactive); in the assay with NCI-H226, > 100 µM (inactive); with EKVX, > 100 µM (inactive). Moreover, the GI50 in the assay on NCI-H23, with SK-MEL-28, in the assay with K562 and in the assay on MDA-MB-435 was > 100 µM (inactive) throughout.
`CC1(C)C2CC3C(C)(C2)C31c1cc(Cl)ccc1N` (stereo not given): the GI50 in the assay on HOP-92 was 13.3 µM (inactive); in the assay with SK-OV-3 it was 15.5 µM (inactive); with SK-MEL-5, 14.2 µM (inactive); in the assay with PC-3, 13.8 µM (inactive); in the assay on HOP-62 it was 15.3 µM (inactive); with HCT-15, 10.9 µM. The GI50 in the assay with COLO 205 is 19.1 µM (inactive); with T47D, 12 µM (inactive); with HCT-116, 2.23 µM (inactive); with NCI-H226 it was 17.8 µM (inactive); with EKVX, 13.7 µM (inactive); in the assay on NCI-H23 it was 12.3 µM (inactive). The GI50 in the assay with SK-MEL-28 is 17.3 µM (inactive); in the assay on SNB-75 it was 11.9 µM (inactive); with K562, 10.5 µM (inactive); with MDA-MB-435, 12.6 µM (inactive); in the assay on UACC-257, 13.4 µM (inactive).
On to `CCN(C(=O)N[C@@H](Cc1ccccc1)C(=O)N[C@@H](CC(C)C)C(=O)OC)c1ccccc1`, for which the GI50 with HOP-92 is 22.2 µM (inactive); with SK-OV-3, 40.6 µM (inactive); with PC-3, 35.1 µM (inactive); with HOP-62, 34.4 µM (inactive); in the assay with HCT-15 it was 15.8 µM; with COLO 205, 18 µM (inactive). In addition, the GI50 in the assay on T47D was 77.6 µM (inactive); with HCT-116 it was 20.2 µM (inactive); in the assay with NCI-H226, 19.5 µM (inactive); in the assay with EKVX, 18.7 µM (inactive); in the assay on NCI-H23 it was 24 µM (inactive); in the assay with SK-MEL-28, 17.5 µM (inactive). The GI50 in the assay with K562 is 31.3 µM (inactive); with MDA-MB-435, 51.6 µM (inactive); in the assay on UACC-257 it was 23.2 µM (inactive).
As for `CCCCC1(O)CC2CC1C(C)C2(C)C` (stereo not given), the GI50 in the assay with Hs-578T is 84.5 µM (inactive); in the assay with HL-60 it was 21.5 µM (inactive); in the assay on SK-OV-3, > 100 µM (inactive); in the assay with SK-MEL-5, > 100 µM (inactive); with PC-3, > 100 µM (inactive); in the assay on HOP-62, > 100 µM (inactive). In addition, the GI50 was above 100 µM in the assay on HCT-15; > 100 µM (inactive) with COLO 205; > 100 µM (inactive) in the assay on HCT-116; > 100 µM (inactive) with NCI-H226; > 100 µM (inactive) with EKVX; > 100 µM (inactive) in the assay on NCI-H23. In addition, the GI50 in the assay on SK-MEL-28, in the assay on SNB-75, with K562, in the assay on MDA-MB-435 and with UACC-257 was > 100 µM (inactive) throughout.
On to `C[C@]12CC[C@H](O)CC1=CC[C@@H]1[C@@H]2CC[C@]2(C)C(=N/N)/C(=N\O)C[C@@H]12`, for which the GI50 was 2.42 µM (inactive) in the assay with HOP-92; 9.91 µM (inactive) in the assay on HL-60; 76 µM (inactive) in the assay with SK-OV-3; > 100 µM (inactive) in the assay with SK-MEL-5; > 100 µM (inactive) in the assay on PC-3; 45.9 µM (inactive) with HOP-62. Besides, the GI50 in the assay with HCT-15 is 3.94 µM; in the assay with COLO 205, 40 µM (inactive); in the assay on T47D, > 100 µM (inactive); in the assay on HCT-116, 43.4 µM (inactive); in the assay on NCI-H226 it was 74.3 µM (inactive); in the assay with EKVX, 74.1 µM (inactive). Further, the GI50 was > 100 µM (inactive) with NCI-H23; 7.5 µM (inactive) in the assay on SNB-75; 14.5 µM (inactive) with K562; 2.12 µM (inactive) with MDA-MB-435; > 100 µM (inactive) in the assay with UACC-257.
For `CN(C)/N=N/c1ccc2[nH]c(=O)[nH]c2c1`, the GI50 was > 100 µM (inactive) with Hs-578T; 19.2 µM (inactive) in the assay with HL-60; > 100 µM (inactive) in the assay with SK-OV-3; > 100 µM (inactive) in the assay on SK-MEL-5; > 100 µM (inactive) in the assay on PC-3; > 100 µM (inactive) in the assay with HOP-62. Besides, the GI50 was above 100 µM in the assay with HCT-15; > 100 µM (inactive) in the assay on COLO 205; > 100 µM (inactive) with T47D; > 100 µM (inactive) with HCT-116; > 100 µM (inactive) with NCI-H226; > 100 µM (inactive) in the assay on EKVX. Also, the GI50 in the assay with NCI-H23, in the assay on SK-MEL-28, in the assay on SNB-75, in the assay with K562, in the assay on MDA-MB-435 and with UACC-257 was > 100 µM (inactive) in each case.
With `c1ccc([P+](c2ccccc2)(c2ccccc2)c2ccc([P+](c3ccccc3)(c3ccccc3)c3ccccc3)cc2)cc1`, the GI50 in the assay with Hs-578T is 31.6 µM (inactive); with HL-60, 16 µM (inactive); with SK-OV-3, > 100 µM (inactive); in the assay on SK-MEL-5, 41 µM (inactive); with PC-3, 41.4 µM (inactive); with HOP-62 it was > 100 µM (inactive). Besides, the GI50 in the assay with HCT-15 is above 100 µM; in the assay with COLO 205 it was 20.1 µM (inactive); in the assay on T47D it was 27.9 µM (inactive); in the assay with HCT-116, 32 µM (inactive); with NCI-H226 it was 65.5 µM (inactive); in the assay with NCI-H23 it was 39.9 µM (inactive). The GI50 in the assay with SK-MEL-28 was > 100 µM (inactive); in the assay with SNB-75 it was 37.6 µM (inactive); in the assay with K562 it was 28.4 µM (inactive); with MDA-MB-435, 49.5 µM (inactive); in the assay with UACC-257, 29.2 µM (inactive).
